Patent publication US4110327A, “2,3 Diketo-piperazinocarbonylamino alkanoic acids and derivatives” (Toyama Chemical Co., Ltd., priority 1974, dated 1978)
In brackets after ≈: the same amount, converted by molar mass.

Legend:
[1] = test system: Escherichia coli NIHJ; assay: MIC against standard strain, plate method; format: cell-based; details: unit assumed
Method in brief: (§1)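 Minimum inhibitory concentrations were determined on agar plates of heart infusion medium (pH 7.4) inoculated with 10^4 cells per plate.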

[2] = test system: Klebsiella pneumoniae; assay: MIC against standard strain, plate method; format: cell-based; details: unit assumed
Method in brief: as §1

[3] = test system: Proteus vulgaris 3027; assay: MIC against standard strain, plate method; format: cell-based; details: Proteus vulgaris 3027, standard strain; unit assumed
Method in brief: as §1

[4] = test system: Pseudomonas aeruginosa I.F.O.; assay: MIC against standard strain, plate method; format: cell-based; details: unit assumed
Method in brief: as §1

[5] = test system: Staphylococcus aureus 209p; assay: MIC against standard strain, plate method; format: cell-based; details: unit assumed
Method in brief: as §1

[6] = test system: Staphylococcus aureus; assay: MIC against clinical isolates; format: cell-based; details: unit assumed
[7] = test system: Escherichia coli; assay: MIC against clinical isolates; format: cell-based; details: unit assumed
[8] = test system: Pseudomonas aeruginosa; assay: MIC against clinical isolates; format: cell-based; details: unit assumed
[9] = test system: Klebsiella pneumoniae; assay: MIC against clinical isolates; format: cell-based; details: unit assumed
[10] = test system: Shigella flexneri; assay: MIC against clinical isolates; format: cell-based; details: unit assumed
Experimental: (§2) The minimum inhibitory concentrations (MIC) was determined by the plate method disclosed in "Chemotherapy" (Japan), Vol. 16, (1968), pages 98 - 99. The culture medium used was a Heart infusion agar (pH 7.4). The number of the cells per plate used in the inoculum as 10^4 (10^6 cells/ml).
(§3) MIC was determined in the same manner as in the preceding paragraph (1).

[11] = test system: Shigella sonnei; assay: MIC against clinical isolates; format: cell-based; details: unit assumed
Experimental: as §2, §3

[12] = test system: Salmonella typhi; assay: MIC against clinical isolates; format: cell-based; details: unit assumed
[13] = test system: Salmonella typhi-murium; assay: MIC against clinical isolates; format: cell-based; details: unit assumed
[14] = test system: Proteus mirabilis; assay: MIC against clinical isolates; format: cell-based; details: clinical isolate, unit assumed
[15] = test system: Proteus morganii; assay: MIC against clinical isolates; format: cell-based; details: clinical isolate, unit assumed
[16] = test system: Proteus vulgaris; assay: MIC against clinical isolates; format: cell-based; details: clinical isolate, unit assumed
[17] = test system: Proteus rettgeri; assay: MIC against clinical isolates; format: cell-based; details: clinical isolate, unit assumed
[18] = test system: β-lactamase; assay: Resistant activity against β-lactamase, iodometric assay; format: biochemical, Pseudomonas aeruginosa GN 238; details: relative to Potassium Penicillin G = 100
Method in brief: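 β-Lactamase taken as sonicated-cell supernatant from Pseudomonas aeruginosa GN 238 grown 6 h at 37° C, washed in 0.1 M phosphate pH 7.0. Compound stability to the enzyme measured iodometrically; values relative to potassium penicillin G set at 100.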

[19] = Acute toxicity LD50 i.v. in mouse; details: in vivo, iv
Description: The present penicillins and cephalosporins have generally low toxicity.

[20] = clinical isolate GN (number not given; Table 5-3)

CCCCCN1CCN(C(=O)N[C@@H](C(=O)N[C@@H]2C(=O)N3[C@@H]2SC(C)(C)[C@@H]3C(=O)O)c2ccccc2)C(=O)C1=O (single isomer, unassigned) [compound 45]
MIC [1]: < 0.1 µg/mL
MIC [2]: 0.79 µg/mL (≈ 1.41 µM)
MIC [3]: 0.4 µg/mL (≈ 0.715 µM)
MIC [4]: 12.5 µg/mL (≈ 22.3 µM)
MIC [5]: 0.79 µg/mL (≈ 1.41 µM)
MIC ([6]; clinical isolate F-1): 6.25 µg/mL (≈ 11.2 µM)
MIC ([6]; clinical isolate F-4): 6.25 µg/mL (≈ 11.2 µM)
MIC ([6]; clinical isolate F-5): > 200 µg/mL
MIC ([6]; clinical isolate MS 8588): 3.13 µg/mL (≈ 5.59 µM)
MIC ([6]; clinical isolate MS 8596): 3.13 µg/mL (≈ 5.59 µM)
MIC ([6]; clinical isolate MS 8619): 0.79 µg/mL (≈ 1.41 µM)
MIC ([6]; clinical isolate MS 8684): 3.13 µg/mL (≈ 5.59 µM)
MIC ([6]; clinical isolate MS 8713): 6.25 µg/mL (≈ 11.2 µM)
MIC ([7]; clinical isolate GN 3435): 0.79 µg/mL (≈ 1.41 µM)
MIC ([7]; clinical isolate GN 3465): 25 µg/mL (≈ 44.7 µM)
MIC ([7]; clinical isolate GN 3611): > 200 µg/mL
MIC ([7]; clinical isolate K-1): 0.79 µg/mL (≈ 1.41 µM)
MIC ([7]; clinical isolate K-3): 200 µg/mL (≈ 357 µM)
MIC ([7]; clinical isolate K-4): 0.79 µg/mL (≈ 1.41 µM)
MIC ([8]; clinical isolate GN 82): 12.5 µg/mL (≈ 22.3 µM)
MIC ([8]; clinical isolate GN 163): 12.5 µg/mL (≈ 22.3 µM)
MIC ([8]; clinical isolate GN 221): 3.13 µg/mL (≈ 5.59 µM)
MIC ([8]; clinical isolate GN 376): 25 µg/mL (≈ 44.7 µM)
MIC ([8]; clinical isolate GN 383): 25 µg/mL (≈ 44.7 µM)
MIC ([8]; clinical isolate GN 1035): 50 µg/mL (≈ 89.3 µM)
MIC ([8]; clinical isolate GN 1091): 12.5 µg/mL (≈ 22.3 µM)
MIC ([8]; clinical isolate GN 2565): 25 µg/mL (≈ 44.7 µM)
MIC ([8]; clinical isolate GN 2987): 12.5 µg/mL (≈ 22.3 µM)
MIC [8, 20]: 25 µg/mL (≈ 44.7 µM)
MIC ([8]; clinical isolate S-1): 25 µg/mL (≈ 44.7 µM)
MIC ([8]; clinical isolate S-2): 25 µg/mL (≈ 44.7 µM)
MIC ([8]; clinical isolate S-3): 50 µg/mL (≈ 89.3 µM)
MIC ([8]; clinical isolate S-4): 25 µg/mL (≈ 44.7 µM)
MIC ([9]; clinical isolate GN 3850): 3.13 µg/mL (≈ 5.59 µM)
MIC ([9]; clinical isolate GN 4081): 25 µg/mL (≈ 44.7 µM)
MIC ([9]; clinical isolate GN 4117): 25 µg/mL (≈ 44.7 µM)
MIC ([10]; clinical isolate JS 11215): 25 µg/mL (≈ 44.7 µM)
MIC ([11]; clinical isolate JS 11232): 25 µg/mL (≈ 44.7 µM)
MIC ([12]; clinical isolate SL 819): 1.57 µg/mL (≈ 2.81 µM)
MIC ([12]; clinical isolate SL 2169): 0.79 µg/mL (≈ 1.41 µM)
MIC ([13]; clinical isolate SL 858): 0.79 µg/mL (≈ 1.41 µM)
MIC ([13]; clinical isolate SL 2136): 200 µg/mL (≈ 357 µM)
MIC [14]: < 0.4 µg/mL
MIC [15]: 0.79 µg/mL (≈ 1.41 µM)
MIC [16]: < 0.4 µg/mL
MIC [17]: 6.25 µg/mL (≈ 11.2 µM)
Relative activity [18]: 16%

CCN1CCN(C(=O)N[C@@H](C(=O)N[C@@H]2C(=O)N3[C@@H]2SC(C)(C)[C@@H]3C(=O)O)c2ccccc2)C(=O)C1=O
LD50 [19]: > 5000 mg/kg

CCCCCCN1CCN(C(=O)N[C@@H](C(=O)N[C@@H]2C(=O)N3[C@@H]2SC(C)(C)[C@@H]3C(=O)O)c2ccccc2)C(=O)C1=O (single isomer, unassigned) [compound 46]
MIC [1]: < 0.1 µg/mL
MIC [2]: 0.4 µg/mL (≈ 0.697 µM)
MIC [3]: 0.4 µg/mL (≈ 0.697 µM)
MIC [4]: 6.25 µg/mL (≈ 10.9 µM)
MIC [5]: 0.2 µg/mL (≈ 0.349 µM)
MIC ([6]; clinical isolate F-1): 6.25 µg/mL (≈ 10.9 µM)
MIC ([6]; clinical isolate F-3): 0.79 µg/mL (≈ 1.38 µM)
MIC ([6]; clinical isolate F-4): 6.25 µg/mL (≈ 10.9 µM)
MIC ([6]; clinical isolate F-5): > 200 µg/mL
MIC ([6]; clinical isolate MS 8596): 3.13 µg/mL (≈ 5.46 µM)
MIC ([6]; clinical isolate MS 8619): < 0.4 µg/mL
MIC ([6]; clinical isolate MS 8713): 6.25 µg/mL (≈ 10.9 µM)
MIC ([7]; clinical isolate GN 3435): < 0.4 µg/mL
MIC ([7]; clinical isolate GN 3452): 0.79 µg/mL (≈ 1.38 µM)
MIC ([7]; clinical isolate GN 3465): 6.25 µg/mL (≈ 10.9 µM)
MIC ([7]; clinical isolate GN 3481): 3.13 µg/mL (≈ 5.46 µM)
MIC ([7]; clinical isolate GN 3611): > 200 µg/mL
MIC ([7]; clinical isolate K-1): 0.79 µg/mL (≈ 1.38 µM)
MIC ([7]; clinical isolate K-2): 0.79 µg/mL (≈ 1.38 µM)
MIC ([7]; clinical isolate K-3): 50 µg/mL (≈ 87.2 µM)
MIC ([7]; clinical isolate K-4): < 0.4 µg/mL
MIC ([8]; clinical isolate GN 82): 6.25 µg/mL (≈ 10.9 µM)
MIC ([8]; clinical isolate GN 163): 6.25 µg/mL (≈ 10.9 µM)
MIC ([8]; clinical isolate GN 221): 12.5 µg/mL (≈ 21.8 µM)
MIC ([8]; clinical isolate GN 376): 25 µg/mL (≈ 43.6 µM)
MIC ([8]; clinical isolate GN 383): 25 µg/mL (≈ 43.6 µM)
MIC ([8]; clinical isolate GN 1035): 50 µg/mL (≈ 87.2 µM)
MIC ([8]; clinical isolate GN 1091): 12.5 µg/mL (≈ 21.8 µM)
MIC ([8]; clinical isolate GN 2565): 12.5 µg/mL (≈ 21.8 µM)
MIC ([8]; clinical isolate GN 2987): 6.25 µg/mL (≈ 10.9 µM)
MIC [8, 20]: 12.5 µg/mL (≈ 21.8 µM)
MIC ([8]; clinical isolate S-1): 50 µg/mL (≈ 87.2 µM)
MIC ([8]; clinical isolate S-2): 50 µg/mL (≈ 87.2 µM)
MIC ([8]; clinical isolate S-3): 50 µg/mL (≈ 87.2 µM)
MIC ([8]; clinical isolate S-4): 50 µg/mL (≈ 87.2 µM)
MIC ([9]; clinical isolate GN 917): 0.79 µg/mL (≈ 1.38 µM)
MIC ([9]; clinical isolate GN 4081): 12.5 µg/mL (≈ 21.8 µM)
MIC ([9]; clinical isolate GN 4117): 12.5 µg/mL (≈ 21.8 µM)
MIC ([10]; clinical isolate JS 11215): 6.25 µg/mL (≈ 10.9 µM)
MIC ([10]; clinical isolate JS 11839): 0.79 µg/mL (≈ 1.38 µM)
MIC ([11]; clinical isolate JS 11232): 12.5 µg/mL (≈ 21.8 µM)
MIC ([11]; clinical isolate JS 11755): 0.79 µg/mL (≈ 1.38 µM)
MIC ([12]; clinical isolate SL 819): 1.57 µg/mL (≈ 2.74 µM)
MIC ([12]; clinical isolate SL 2169): 0.79 µg/mL (≈ 1.38 µM)
MIC ([13]; clinical isolate SL 858): < 0.4 µg/mL
MIC ([13]; clinical isolate SL 2136): 50 µg/mL (≈ 87.2 µM)
MIC [14]: < 0.4 µg/mL
MIC [15]: < 0.4 µg/mL
MIC [16]: < 0.4 µg/mL
MIC [17]: 3.13 µg/mL (≈ 5.46 µM)
Relative activity [18]: 12%
